Assay results: a melting point compilation (Tetko et al.; mined from patent text by program, amines drawn as free bases though some values may be those of a salt)

Compound	melting point
O=C(NCCO)c1cnc(NCCO)cc1Nc1ccc(I)cc1F	> 250 °C
CC1CCc2c(N3CCCC3)ccc3c(=O)c(C(=O)O)cn1c23 (stereo not drawn)	170 to 174 °C
O=C(CCC1CCCCCCCCCCC1)C1=C(O)CSC1=O	60 to 62 °C
Cn1c(=O)c2c(N)nccc2n(C)c1=O	229 to 230 °C
CN1CCN(c2cccc3c2C[C@H](NC(=O)CCCc2ccccc2)CC3)CC1	137 to 139 °C
NN1CN=Cc2c(NC3OC(CO)C(O)C3O)ncnc21 (stereo not drawn)	209 to 214 °C
O=C(O)c1ccc(OCCCc2ccc(OCc3ccccc3)cc2)cc1	128 to 130 °C
COc1cc(OC)cc(-c2ncn(-c3cc(OC)c(OC)c(OC)c3)c2-c2ccc(OC)c(F)c2)c1	157 to 158 °C
C#CCOc1ccc(C(=O)C=Cc2ccc(C#N)cc2)c(O)c1	188 to 190 °C
Cc1oc2cc(O)ccc2c(=O)c1C(=O)O	286 to 287 °C
O=C1CCC(N2C(=O)c3cccc(CNC(=O)c4cccc(C(F)(F)F)c4F)c3C2=O)C(=O)N1 (stereo not drawn)	155 to 157 °C
CCCc1c(OCCCOc2cccc3c2CCCC3)ccc2c1OC(CCC(=O)O)(CCC(=O)N1CCCC1)CC2=O (stereo not drawn)	160 to 164 °C
CC1=C(C(=O)Nc2ccccc2)SC2=NCCN21	204 to 205 °C
CN(Cc1ccc(NC(=O)c2coc3c2C(=O)CCC3)cc1)C(=O)OC(C)(C)C	150 °C
CN(CCNC(N)=N[N+](=O)[O-])c1ccc(Cl)nc1	119 to 122 °C
Nc1nc2ccc(C(O)C(CNC(=O)c3ccccc3)N3CCC(Cc4ccccc4)CC3)cc2s1 (stereo not drawn)	160 to 162 °C
FC(F)(F)c1cccc(N2CCC(N=Cc3ccccn3)=N2)c1	156 °C
CC(=O)Nc1ccccc1N(CC(=O)OC(C)(C)C)C(=O)CN1C(=O)c2ccccc2C1=O	170 °C
CCC(C)OC(=O)C(Br)=CC1C(C(=O)OC(C#N)c2cccc(Oc3ccccc3)c2)C1(C)C (stereo not drawn)	76 °C
CS(=O)(=O)Nc1ccc2c(c1)C(=O)CC1(CCN(CCc3ccc(N)c(N)c3)CC1)O2	109 to 112 °C
CCCOc1c(C2CCN(CCCCNC(=O)c3ccc(-c4ccc(C(F)(F)F)cc4)cc3)CC2)ccc2ccccc12	191 to 192 °C

Compound	melting point
CCOC(=O)c1c[nH]c2ccc(OC3CCN(C)CC3)nc12	232 °C
NC=C1Cc2ccccc2C1=O	163 to 165 °C
CCN(CC)CCOc1ccc(C(O)(CC)c2ccccc2)cc1 (stereo not drawn)	113 °C
CC1(OC(=O)C#CC2C(C(=O)OC(C#N)c3cccc(Oc4ccccc4)c3)C2(C)C)CCC1 (stereo not drawn)	76 °C
CCCCc1n[nH]c(C(F)(F)CCC)n1	92 to 93 °C
O[C@@H](CNCCOc1ccc2oc(-c3noc(C(F)(F)F)n3)cc2c1)COc1ccccc1F	117 to 119 °C
O=c1nc(-c2cccc(CNS(=O)(=O)c3ccccc3)n2)sc2ccccc12	207 to 208 °C
CCC(O)(c1ccc(OCCCN2CCCCC2)cc1)c1ccccc1OC (stereo not drawn)	110 to 111 °C
CNNC(=O)OC(C)(C)C	50 °C
C=CCN(CC=C)c1ccc(C=Cc2ccc(S(C)(=O)=O)cc2)cc1	101 to 102 °C
[N-]=[N+]=NC1CC(n2cnc3c(N4CCCC4)nc(N)nc32)OC1CO (stereo not drawn)	180 to 183 °C
CCCCCCSC1=CC(=O)NC1=O	99 to 101 °C
O=C(NC1N=C(c2ccccc2F)c2ccccc2NC1=O)c1ccccc1 (racemic)	243 to 244 °C
COc1ccc(-c2sc(-c3ccc(OC)s3)c3c2OCCO3)s1	101 °C
CCOC(=O)C1(C(=O)OCC)SCC(N(C)C)CS1	38 to 39 °C
COc1ccc(C(=O)NCCCCn2cnc3c(N)nc4ccccc4c32)c(OC)n1	175 to 177 °C
Cc1oc(-c2ccc3ccccc3c2)nc1COc1ccc(CCCCCOS(C)(=O)=O)cc1	132 to 133 °C
O=C(O)c1ccc(C(=O)O)c(O)c1	> 300 °C
Nc1nc(Br)nc2c1ncn2C1OC(CO)C(O)C1F (stereo not drawn)	209 to 210 °C
COc1cc(CN2CC[C@H](O)C2)ccc1-c1nc2c(N[C@H]3[C@@H](C(N)=O)[C@@H]4C=C[C@H]3C4)c(Cl)cnc2[nH]1	205 to 208 °C
N#Cc1ccc(OCc2cccnc2)cc1OC(C(=O)O)c1ccccc1 (racemic)	201 to 202 °C

Compound	melting point
CC1(C)CCC(C)(C)c2cc(-c3cnn(-c4ccc(C(=O)O)cc4)c3)ccc21	229 to 232 °C
O=C(O)Cc1cnc(Cc2ccc(NC(=O)c3ccc(Cl)c(Cl)c3)cc2)n2ccnc12	185 to 188 °C
CCC(C)(C)NS(=O)(=O)c1ccc(CBr)cc1	100 °C
CCOC(=O)CNC(=O)[C@H](Cc1ccc(O)cc1)NC(=O)[C@H](CO)NC(=O)[C@H](Cc1c[nH]c2ccccc12)NC(=O)[C@H](Cc1c[nH]cn1)NC(=O)[C@@H]1CCC(=O)N1	218 to 220 °C
CC(C)(C)OC(=O)N1CCC(Cn2cc(S(=O)(=O)c3ccccc3)c3ccccc32)CC1	181 to 182 °C
COC(=O)c1ccsc1S(=O)(=O)Cl	51 to 54 °C
CCCCc1cc2c(cc1/C=C/c1ccc(C(=O)O)cc1)C(C)(C)CCC2(C)C	192 to 194 °C
COC(=O)c1c(C)c(O)cc(OC)c1Cl	92 °C
O=c1c2cnn(CC3CO3)c2ncn1CC1CO1 (stereo not drawn)	90 to 95 °C
CCC(CC)(CC(=O)Nc1cccc(/C=C/c2nc(C3CC3)cs2)c1)C(=O)O	153 to 157 °C
CSCn1cc(F)c(N=CN(C)C)nc1=O	132 to 136 °C
COc1ncnc2c(NC3OC(CO)C(O)C3O)ncnc12 (stereo not drawn)	183 °C
Cc1cc(C2=CCN(S(=O)(=O)C3(C(=O)O)CCOCC3)CC2)ccc1-c1ccccc1	211 to 213 °C
COc1c(N2CCC(NC(=O)OCc3ccccc3)C(C)(C)C2)c(F)cc2c(=O)c(C(=O)O)cn(C3CC3)c12 (stereo not drawn)	158 to 160 °C
O=C(/C=C/c1ccncc1)N[C@H]1c2ccccc2C[C@H]1O	205 to 207 °C
CCCC(=O)C1=C(n2cccn2)CC(C2CCCSC2)CC1=O (stereo not drawn)	127 °C
CC(=O)NC(C)c1ccc(CN2CCN(c3nccs3)CC2)cc1 (stereo not drawn)	136 to 137 °C
O=C1c2cc(OCc3ccccc3Cl)ccc2CCN1Cc1cccnc1	88.5 to 90 °C
COC(=O)CCCC#Cc1cc(Cl)ccc1NS(=O)(=O)c1ccc2c(c1)CCC(=O)N2	53 to 57 °C
O=[N+]([O-])c1ccc(-c2ccc(-c3ccc([N+](=O)[O-])cc3C(F)(F)F)o2)c(C(F)(F)F)c1	158 to 159 °C

Continued, values first:

melting point	Compound
200 to 201 °C	O=C(Nc1cccc(F)n1)c1cc(-c2ccc(Cl)cc2)nc2ccccc12
139 to 140 °C	CCOCCOC(=O)C(=O)Nc1nc(-c2ccc(OCC)cc2)cs1
337 to 338 °C	Nc1ccc2c(c1)C(=O)c1cc(N)ccc1C2=O
158 to 163 °C	COc1ccc(C(=O)Cc2ncccc2C(=O)O)cc1
221 to 223 °C	CCc1[nH]n(C2CCCC2)c2nc(Cc3ccc([N+](=O)[O-])cc3)nc(=O)c1-2
164 to 169 °C	CCc1ccc(Cc2c(O)nn(C(C)C)c2C)cc1
181 to 185 °C	C[C@@H](NS(=O)(=O)c1ccc(-c2c(C#N)c3cc(Cl)ncc3n2C2CCC2)nc1)C(F)(F)F
207 °C	OC1CSC(Oc2ccc(-c3cccnc3)cc2F)C(O)C1O (stereo not drawn)
211 °C	Cc1cc(-c2ccc(C(F)(F)F)cc2)cn2c(C(=O)O)cnc12
231 to 234 °C	CN(C)c1cc2c(cc1Cl)NC(=O)CC(c1cccc(-c3csc(Nc4ccncc4)n3)c1)=N2
219 to 220 °C	CSc1c(CC(=O)O)cc(C)c2c3ccccc3n(Cc3ccccc3)c12
217 to 218 °C	Cc1nc2cc(NC(=O)c3cc4cc(F)ccc4n3Cc3cccc(F)c3)ccn2c1-c1ccccc1
128 to 129 °C	CS(=O)(=O)c1ccc(-c2ccccc2NC(=N)N2CCCCC2)cc1
107 to 108 °C	CCOC(=O)C(C#N)=C(NCc1ccccc1)NCC1CN(Cc2ccc(F)cc2)CCO1 (stereo not drawn)
150 °C	CC1=C(C(=O)OC2CCCC2)C(c2c(F)cccc2Cl)C(C(=O)n2ccnc2)=C(C)N1 (stereo not drawn)
238 to 239 °C	O=c1ccc(S(=O)(=O)n2nc(Cl)c3ccccc32)n[nH]1
262 °C	Cc1cc(-c2cc(C(F)(F)F)n3ncc(-c4nc(-c5ccc(N)nc5)no4)c3n2)ccc1Cl
256 to 257 °C	Nc1cc(Oc2ccc3c(C(=O)Nc4ccc(F)c(C5CC5)c4)cccc3c2)ncn1

melting point	Compound
108 to 110 °C	O=S(=O)(F)c1c(F)nc2ccccn12
220 to 222 °C	COc1ccc2cc(C(=O)O)ccc2n1
227 to 229 °C	Cc1nnc2ccc(-c3ccc(F)cc3)nn12
140 to 143 °C	CN(C)C=C1C(=O)N(c2cccc(C#N)c2)c2ccccc21
164 to 168 °C	COc1ccc(NC(=O)c2ccc(C(C)(C)C#N)cc2)cc1
192 to 193 °C	COc1c(OC)c(-c2ccccc2)n(-c2ccc(C)cc2)c1-c1ccccc1
116 °C	CC(=O)c1ccccc1NC(c1c(Cl)cccc1Cl)C1CC1 (stereo not drawn)
70 to 75 °C	O=C/C(=C/c1ccccc1)c1ccc(Cl)cc1
101 to 103 °C	Cn1c(C(=O)C(C)(C)C)cc2cc(OCc3ccccc3)ccc21
102 to 104 °C	CSc1ccc(C=C2CCc3cc(OCCn4ccnc4)ccc3C2=O)s1
205 to 206 °C	Nc1nc2c(c(Nc3ccc(F)cc3)n1)-c1ccccc1C2
< 20 °C	CCOC(=O)C(C)(C)Oc1ccc(-c2ccc(CCNC(=O)c3ccccc3C)cc2)cc1
181 °C	COc1ccc(Nc2nc(Nc3ccc(OC)c(F)c3)nc(OCC3CCCCC3)n2)cc1F
156 °C	Cc1cc(Nc2ccc(F)cc2)nc(Nc2ccc(S(=O)(=O)N(C)C3CCN(Cc4ccoc4)CC3)cc2)n1
174 to 176 °C	COc1ccc2cc(C(C)NC(=O)NO)ccc2c1 (stereo not drawn)
239 °C	Cc1cc(-c2ccc(C(=N)NO)o2)ccc1Br
106 °C	Cc1cccc(-c2nc(C(C)(C)C)n(C)n2)n1
210 to 212 °C	CNC(=O)CCCC1CCN(Cc2cnc3c(C)c(NC(=O)c4ccc(-c5ccc(F)cc5)cc4)ccc3c2)CC1
